Measurements as given in patent US20150246938A1, “NOVEL OLEFIN DERIVATIVE” (SHIONOGI & CO., LTD., priority 2011, published 2015).

What follows are compounds tested against T1, recombinant human ACC2 (Homo sapiens, UniProt O00763) (assay: Measurement of inhibitory activity on human ACC2 (MALDI-TOF MS, acetyl CoA to malonyl CoA conversion)). Conditions: not given.
T1 construct: a cDNA encoding human ACC2 (27-2458) was cloned from human kidney cDNA library (Clontech); His-tag (N); made in house; host or cells: Sf-9 insect cells (Bac-to-Bac baculovirus)
Assay type: biochemical

T1 sequence (O00763 27-2458): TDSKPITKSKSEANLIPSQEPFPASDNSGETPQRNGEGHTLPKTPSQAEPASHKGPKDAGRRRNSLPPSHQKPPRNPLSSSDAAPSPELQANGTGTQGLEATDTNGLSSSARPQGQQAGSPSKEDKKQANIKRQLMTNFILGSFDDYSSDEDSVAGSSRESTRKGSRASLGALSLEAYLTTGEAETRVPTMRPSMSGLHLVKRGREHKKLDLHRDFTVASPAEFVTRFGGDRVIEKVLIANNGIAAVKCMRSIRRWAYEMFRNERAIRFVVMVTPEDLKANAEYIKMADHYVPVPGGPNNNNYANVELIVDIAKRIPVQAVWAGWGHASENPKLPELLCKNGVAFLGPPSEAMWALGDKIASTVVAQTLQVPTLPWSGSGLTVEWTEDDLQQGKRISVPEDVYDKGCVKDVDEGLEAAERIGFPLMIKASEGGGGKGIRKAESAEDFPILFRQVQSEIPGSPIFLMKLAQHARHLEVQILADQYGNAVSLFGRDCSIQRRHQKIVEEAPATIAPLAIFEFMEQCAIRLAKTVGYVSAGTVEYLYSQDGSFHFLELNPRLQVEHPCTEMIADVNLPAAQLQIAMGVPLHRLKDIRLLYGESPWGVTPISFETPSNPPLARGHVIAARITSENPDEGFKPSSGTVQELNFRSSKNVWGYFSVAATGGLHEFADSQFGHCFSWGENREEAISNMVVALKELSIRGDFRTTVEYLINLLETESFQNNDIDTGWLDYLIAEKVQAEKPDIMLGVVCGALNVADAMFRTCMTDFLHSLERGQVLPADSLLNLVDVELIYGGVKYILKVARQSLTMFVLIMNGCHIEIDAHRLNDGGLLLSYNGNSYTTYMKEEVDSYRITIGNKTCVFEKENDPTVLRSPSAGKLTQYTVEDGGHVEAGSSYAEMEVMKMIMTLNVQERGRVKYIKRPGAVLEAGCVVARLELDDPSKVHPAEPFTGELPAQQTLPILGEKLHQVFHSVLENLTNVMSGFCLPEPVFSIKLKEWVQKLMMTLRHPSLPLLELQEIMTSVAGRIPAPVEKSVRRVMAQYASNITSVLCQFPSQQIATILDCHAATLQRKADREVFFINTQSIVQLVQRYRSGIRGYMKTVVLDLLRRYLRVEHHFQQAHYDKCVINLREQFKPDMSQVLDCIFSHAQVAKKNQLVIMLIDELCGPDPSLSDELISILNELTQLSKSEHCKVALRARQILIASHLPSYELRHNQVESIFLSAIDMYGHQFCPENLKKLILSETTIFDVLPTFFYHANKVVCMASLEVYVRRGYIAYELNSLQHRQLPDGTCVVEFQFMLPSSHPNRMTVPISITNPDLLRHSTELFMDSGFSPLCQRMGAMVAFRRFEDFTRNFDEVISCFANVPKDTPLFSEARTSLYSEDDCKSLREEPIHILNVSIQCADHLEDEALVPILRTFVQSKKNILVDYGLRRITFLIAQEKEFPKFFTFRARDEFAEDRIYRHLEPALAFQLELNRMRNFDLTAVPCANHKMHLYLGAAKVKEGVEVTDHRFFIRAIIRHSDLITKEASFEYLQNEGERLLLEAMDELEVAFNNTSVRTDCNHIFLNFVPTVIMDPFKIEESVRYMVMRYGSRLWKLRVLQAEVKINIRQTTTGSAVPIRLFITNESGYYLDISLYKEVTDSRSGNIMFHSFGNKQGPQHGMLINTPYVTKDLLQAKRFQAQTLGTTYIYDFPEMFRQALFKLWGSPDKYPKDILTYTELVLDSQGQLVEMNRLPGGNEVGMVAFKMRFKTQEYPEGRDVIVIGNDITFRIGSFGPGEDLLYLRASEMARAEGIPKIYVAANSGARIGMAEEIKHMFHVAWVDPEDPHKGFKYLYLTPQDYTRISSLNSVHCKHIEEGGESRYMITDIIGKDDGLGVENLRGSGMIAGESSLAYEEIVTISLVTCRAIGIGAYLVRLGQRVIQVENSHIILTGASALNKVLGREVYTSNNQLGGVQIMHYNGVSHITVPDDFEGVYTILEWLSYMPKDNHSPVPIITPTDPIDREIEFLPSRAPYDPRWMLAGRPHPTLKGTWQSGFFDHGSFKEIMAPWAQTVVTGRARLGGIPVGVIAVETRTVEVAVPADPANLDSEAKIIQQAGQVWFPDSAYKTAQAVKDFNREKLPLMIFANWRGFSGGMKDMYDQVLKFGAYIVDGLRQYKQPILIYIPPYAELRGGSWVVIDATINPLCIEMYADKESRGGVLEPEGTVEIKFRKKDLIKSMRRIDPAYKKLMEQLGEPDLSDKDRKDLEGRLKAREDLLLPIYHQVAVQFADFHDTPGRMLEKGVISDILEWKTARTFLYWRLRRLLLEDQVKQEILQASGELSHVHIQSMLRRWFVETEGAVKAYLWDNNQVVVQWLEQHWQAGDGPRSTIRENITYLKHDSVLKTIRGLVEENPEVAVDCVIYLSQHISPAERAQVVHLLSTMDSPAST

IC50 [nM]	Structure (SMILES)
57	CC(=O)N[C@@H](C)/C=C/c1ccc(Oc2ccc(-c3cnc(C(F)(F)F)cn3)cc2Cl)nc1 [Compound I-417]
52	CC(=O)N[C@@H](C)/C=C/c1ccc(Oc2ccc(-c3ccc(C(F)(F)F)cn3)cc2Cl)nc1 [Compound I-421]
50	CC(=O)N[C@@H](C)/C=C/c1ccc(Oc2ccc3c(c2)CCO3)nc1 [Compound I-429]
1300	CCCc1ccc(Oc2ccc(/C=C/[C@H](C)NC(=O)Cc3ccccn3)cn2)c(Cl)c1 [Compound I-422]
24	CCC(F)(F)c1ccc(Oc2ccc(/C=C/[C@H](C)NC(C)=O)cn2)c(Cl)c1 [Compound I-389]
48	CC(=O)N[C@@H](C)/C=C/c1ccc(Oc2ccc(-c3ncc(C(F)(F)F)cn3)cc2Cl)nc1 [Compound I-419]
26	CC(=O)N[C@@H](C)/C=C/c1ccc(Oc2cc3c(cc2Cl)CCC3)nc1 [Compound I-426]
1200	CCCc1ccc(Oc2ccc(/C=C/[C@H](C)NC(=O)CC(=O)OC(C)(C)C)cn2)c(Cl)c1 [Compound I-405]

Same assay, conditions: inhibition activity on human ACC2, Table 79; read-out: IC50

IC50 [nM]	Structure (SMILES)
940	CC(=O)N[C@@H](C)/C=C/c1cnc(Oc2ccc(NC(=O)OC(C)(C)C)cc2Cl)nc1 [Compound I-53]
97	COc1cc(Cl)cc(Oc2ccc(/C=C/[C@H](C)NC(C)=O)cn2)c1 [Compound I-28]
52	CCOc1ccc(Oc2ccc(/C=C/[C@H](C)NC(C)=O)cn2)c(Cl)c1 [Compound I-13]
25	CC(=O)N[C@@H](C)/C=C/c1ccc(Oc2cccc(OC(C)C)c2Cl)nc1 [Compound I-47]
54	CC(=O)N[C@@H](C)/C=C/c1cnc(Oc2ccc(OCC3CC3)cc2Cl)nc1 [Compound I-52]
200	C[C@@H](/C=C/c1cnc(Oc2ccc(OCC3CC3)cc2Cl)s1)NC(=O)CN1C(=O)CCC1=O [Compound I-105]

Same assay, conditions: inhibition activity on human ACC2, Table 80; read-out: IC50

IC50 [nM]	Structure (SMILES)
81	C[C@@H](/C=C/c1cnc(Oc2ccc(OCC3CC3)cc2Cl)s1)NC(=O)NCC(F)F [Compound I-192]
61	CC(C)S(=O)(=O)NCCCC(=O)N[C@@H](C)/C=C/c1cnc(Oc2ccc(OCC3CC3)cc2Cl)s1 [Compound I-119]
69	CCOc1ccc(Oc2ccc(/C=C/[C@H](C)Nc3cc(C)on3)cn2)c(Cl)c1 [Compound I-203]
2600	C[C@@H](/C=C/c1cnn(Cc2ccc(OCC3CC3)cc2Cl)c1)NC(=O)c1ccon1 [Compound I-174]
320	C[C@@H](/C=C/c1cnc(Oc2ccc(OCC3CC3)cc2Cl)s1)NC(=O)CCO [Compound I-125]
140	C[C@@H](/C=C/c1cnc(Oc2ccc(OCC3CC3)cc2Cl)s1)NC(=O)NCC(F)(F)F [Compound I-193]
240	COCCNC(=O)N[C@@H](C)/C=C/c1cnc(Oc2ccc(OCC3CC3)cc2Cl)s1 [Compound I-189]
24	C[C@@H](/C=C/c1cnc(Oc2ccc(OCC3CC3)cc2Cl)s1)NC(=O)c1ccnc(C(=O)NCCN2CCCC2)c1 [Compound I-215]
180	C[C@@H](/C=C/c1cnc(Oc2ccc(OCC3CC3)cc2Cl)s1)NC(=O)Cn1ccnc1 [Compound I-123]
59	CCOC(=O)c1cc(C(=O)N[C@@H](C)/C=C/c2cnn(Cc3ccc(OCC4CC4)cc3Cl)c2)ccn1 [Compound I-173]
1800	CCOc1ccc(C(F)(F)c2ccc(/C=C/[C@H](C)NC(N)=O)cn2)c(Cl)c1 [Compound I-188]

Same assay, conditions: inhibition activity on human ACC2, Table 82; read-out: IC50

Structure (SMILES)	IC50 [nM]
CC(=O)N[C@@H](C)/C=C/c1ccc(Oc2ccc(-c3ccccn3)cc2Cl)nc1 [Compound I-325]	120
CCCc1ccc(Oc2ccc(/C=C/[C@H](C)NC(C)=O)cn2)c(C)n1 [Compound I-322]	490
CC(=O)N[C@@H](C)/C=C/c1ccc(Oc2ccc(C3=CCCCC3)cc2Cl)nc1 [Compound I-350]	18
CC(=O)N[C@@H](C)/C=C/c1ccc(Oc2ccc(C(C)F)cc2Cl)nc1 (some centres unmarked) [Compound I-332]	92
CC(=O)N[C@@H](C)/C=C/c1ccc(Oc2ccc(-c3cccnc3)cc2Cl)nc1 [Compound I-326]	440
CC(=O)N[C@@H](C)/C=C/c1ccc(Oc2ccc(C(C)O)cc2Cl)nc1 (some centres unmarked) [Compound I-329]	1100
CC(=O)N[C@@H](C)/C=C/c1ccc(Oc2ccc(-c3ccccc3C)cc2Cl)nc1 [Compound I-342]	120

Other lines, results leading:

IC50 [nM]	Structure (SMILES)
25	CCC(F)c1ccc(Oc2ccc(/C=C/[C@H](C)NC(C)=O)cn2)c(Cl)c1 (some centres unmarked) [Compound I-373]
440	CC(=O)N[C@@H](C)/C=C/c1ccc(Oc2ccc(C(=O)NCC3CC3)cc2Cl)nc1 [Compound I-357]
1100	CC(=O)N[C@@H](C)/C=C/c1ccc(Oc2ccc(-c3ccc(C#N)nc3)cc2Cl)nc1 [Compound I-376]
170	CC(=O)N[C@@H](C)/C=C/c1ccc(Oc2ccc(C3=CC(C)(C)OC(C)(C)C3)cc2Cl)nc1 [Compound I-354]
39	CC(=O)N[C@@H](C)/C=C/c1ccc(Oc2ccc(-c3ccc(C#N)cc3)c(Cl)c2)nc1 [Compound I-377]
57	CCCc1ccc(Oc2ccc(/C=C/[C@H](C)NC(=O)COC(C)=O)cn2)c(Cl)c1 [Compound I-375]

Same assay, conditions: inhibition activity on human ACC2, Table 84; read-out: IC50

IC50 [nM]	Structure (SMILES)
7.1	CC(=O)N[C@@H](C)/C=C/c1ccc(Oc2ccc3nc(C(C)(C)C)sc3c2Cl)nc1 [Compound I-502]
130	CCCc1cc(Oc2ccc(/C=C/[C@H](C)NC(C)=O)cn2)ccc1Cl [Compound I-485]
96	CC(=O)N[C@@H](C)/C=C/c1ccc(Oc2cnc(N3CCCCC3)nc2)nc1 [Compound I-499]
30	CC(=O)N[C@@H](C)/C=C/c1ccc(Oc2ccc3nc(C)sc3c2Cl)nc1 [Compound I-455]
5.8	CC(=O)N[C@@H](C)/C=C/c1ccc(Oc2ccc3nc(C(F)(F)F)sc3c2Cl)nc1 [Compound I-491]
310	CC(=O)N[C@@H](C)/C=C/c1ccc(Oc2cc(C)c(C)cc2Cl)nc1 [Compound I-457]
90	CC(=O)N[C@@H](C)/C=C/c1ccc(Oc2ccc3c(c2)CCN(CC2CC2)C3=O)nc1 [Compound I-468]
88	CC(=O)N[C@@H](C)/C=C/c1ccc(Oc2ccc3c(c2Cl)CCN(CC2CC2)C3=O)nc1 [Compound I-511]
25	CC(=O)N[C@@H](C)/C=C/c1ccc(Oc2ccc(Oc3ccc([N+](=O)[O-])cc3)cc2Cl)nc1 [Compound I-451]
800	CC(=O)N[C@@H](C)/C=C/c1ccc(Oc2ccc3c(c2)C(=O)N(CC2CC2)CC3)nc1 [Compound I-518]
5.1	CC(=O)N[C@@H](C)/C=C/c1ccc(Oc2ccc(-c3ccccc3)c(Cl)c2)nc1 [Compound I-503]
75	CC(=O)N[C@@H](C)/C=C/c1ccc(Oc2cnc(N3CCC(F)CC3)nc2)nc1 [Compound I-520]

Same assay, conditions: inhibition activity on human ACC2, untitled table (Table 81); read-out: IC50

IC50 [nM]	Structure (SMILES)
18	CC(=O)N[C@@H](C)/C=C/c1ccc(Oc2ccc(CCC3CC3)cc2Cl)nc1 [Compound I-287]
59	CC(=O)N[C@@H](C)/C=C/c1ccc(Oc2cc(OC(C)C)ccc2F)nc1 [Compound I-279]
350	CCNC(=O)c1cc(C(=O)N[C@@H](C)/C=C/c2cnn(Cc3ccc(OC)cc3Cl)c2)ccn1 [Compound I-317]
87	CC(=O)N[C@@H](C)/C=C/c1ccc(Oc2ccnc(OCC3CC3)c2)nc1 [Compound I-255]
840	CC(=O)N[C@@H](C)/C=C/c1cnn(Cc2cc(Cl)c(OCC3CC3)c(Cl)c2)c1 [Compound I-264]
26	CC(=O)N[C@@H](C)/C=C/c1ccc(Oc2ccc(C3CC3)cc2Cl)nc1 [Compound I-266]
1300	CCNC(=O)c1cc(C(=O)N[C@@H](C)/C=C/c2cnn(Cc3ccc(Cl)c(Cl)c3)c2)ccn1 [Compound I-310]
2800	CC/C(=C\c1ccc(Oc2cnc(OCC3CC3)cc2Cl)nc1)C(C)NC(C)=O (centres unmarked) [Compound I-295]
79	CCOc1ccc(Oc2ccc(/C=C(\C)C(C)NC(C)=O)cn2)c(Cl)c1 (centres unmarked) [Compound I-271]
160	COc1cc(F)cc(Oc2ccc(/C=C/[C@H](C)NC(C)=O)cn2)c1 [Compound I-257]

These compounds were tested against T2, recombinant human ACC1 (Homo sapiens, UniProt Q13085) (assay: Measurement of inhibitory activity on human ACC1 (MALDI-TOF MS, acetyl CoA to malonyl CoA conversion)). Conditions: not given.
T2 construct: a cDNA encoding human ACC1 (1-2346) was cloned from human liver cDNA library (BioChain); myc-tag (C); His-tag (C); made in house; host or cells: Sf-9 insect cells (baculovirus, FlashBACGOLD)
Assay type: biochemical
From the text: Recombinant baculovirus was generated using FlashBACGOLD system (Oxford Expression Technologies) according to the manufacturer's protocol. To express human ACC1, Sf-9 cells were infected with recombinant baculovirus. After infected cells were disrupted, the filtrated lysate was subjected to Ni-affinity chromatography and anion-exchange chromatography. The fractions containing human ACC1 protein were pooled as recombinant human ACC1 solution.
Recombinant human ACC1 and recombinant human ACC2, which were prepared by the method mentioned above, were preincubated with assay buffer solution (50 mM HEPES-KOH (pH 7.4), 10 mM magnesium chloride, 6-10 mM potassium citrate, 4 mM reduced form of glutathione, 1.5 mg/ml bovine serum albumin) for one hour. Then, 0.2 μL of each this invention compound solution (in DMSO) were dispensed to 384-well microplate, 5 μL of the preincubated enzyme solution and 5 μL of substrate solution (50 mM HEPES-KOH (pH 7.4), 1 mM ATP, 0.8 mM acetyl CoA and 25-50 mM potassium bicarbonate) were added to microplate. After centrifugation and shaking, the reaction mixtures were incubated in a humidified box at room temperature for 1 to 3 hours. After the incubation, the enzyme reactions were stopped by the addition of EDTA. Then, after the samples were cocrystallized with CHCA (α-cyano-4-hydroxy cinnamic acid) matrices on MALDI target plate, by using the matrix assist laser […] time-of-flight mass spectrometer (MALDI-TOF MS), samples were measured in reflector negative mode. Deprotonated ions of acetyl CoA (AcCoA) of substrate and malonyl CoA (MalCoA) of the reaction product were detected, then, the conversion rates of acetyl CoA to malonyl CoA was calculated by the intensity of [MalCoA-H]-/(Intensity of [MalCoA-H]-+Intensity of [AcCoA-H]-) using each signal strength. […] In addition, potassium citrate concentrations in assay buffer solution, potassium hydrogen carbonate concentrations in substrate solution and incubation time were adjusted by each lot of enzyme.

IC50 [nM]	Structure (SMILES)
> 100000	CCOc1ccc(Cc2ccc(/C=C/[C@H](C)NC(C)=O)cn2)c(Cl)c1 [Compound I-60]

Same assay, conditions: recombinant human ACC1, MALDI-TOF MS readout; read-out: 50% inhibitory concentration (1050) on human ACCT

IC50 [nM]	Structure (SMILES)
> 100000	CCCc1ccc(Oc2ccc(/C=C/[C@H](C)NC(C)=O)cn2)c(Cl)c1 [Compound I-30]
